Experimental data: PubChem BioAssay (NCI)
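Five concentrations, 48 hours, 96-well plates. GI50: concentration for 50% inhibition of growth. TGI: total growth inhibition.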

Legend:
Experiment in all cases: NCI anticancer screen, dose series, 48 h
786-0 renal = test system: 786-0 renal
A498 renal = test system: A498 renal
A549 NSCLC = test system: A549 NSCLC
ACHN renal = test system: ACHN renal
BT-549 breast = test system: BT-549 breast
CAKI-1 renal = test system: CAKI-1 renal
CCRF-CEM leukemia = test system: CCRF-CEM leukemia
COLO 205 colon = test system: COLO 205 colon
DU-145 prostate = test system: DU-145 prostate
EKVX NSCLC = test system: EKVX NSCLC
HCC-2998 colon = test system: HCC-2998 colon
HCT-116 colon = test system: HCT-116 colon
HCT-15 colon = test system: HCT-15 colon
HL-60(TB) leukemia = test system: HL-60(TB) leukemia
HOP-62 NSCLC = test system: HOP-62 NSCLC
HOP-92 NSCLC = test system: HOP-92 NSCLC
HS 578T breast = test system: HS 578T breast
HT29 colon = test system: HT29 colon
IGROV1 ovarian = test system: IGROV1 ovarian
K-562 leukemia = test system: K-562 leukemia
KM12 colon = test system: KM12 colon
LOX IMVI melanoma = test system: LOX IMVI melanoma
M14 melanoma = test system: M14 melanoma
MALME-3M melanoma = test system: MALME-3M melanoma
MCF7 breast = test system: MCF7 breast
MDA-MB-231 breast = test system: MDA-MB-231 breast
MDA-MB-435 = test system: MDA-MB-435
MDA-MB-468 breast = test system: MDA-MB-468 breast
MOLT-4 leukemia = test system: MOLT-4 leukemia
NCI-H226 lung = test system: NCI-H226 lung
NCI-H23 lung = test system: NCI-H23 lung
NCI-H460 lung = test system: NCI-H460 lung
NCI-H522 lung = test system: NCI-H522 lung
NCI/ADR-RES ovarian = test system: NCI/ADR-RES ovarian
OVCAR-3 ovarian = test system: OVCAR-3 ovarian
OVCAR-4 ovarian = test system: OVCAR-4 ovarian
OVCAR-5 ovarian = test system: OVCAR-5 ovarian
OVCAR-8 ovarian = test system: OVCAR-8 ovarian
PC-3 prostate = test system: PC-3 prostate
RPMI-8226 leukemia = test system: RPMI-8226 leukemia
RXF 393 renal = test system: RXF 393 renal
SF-268 CNS = test system: SF-268 CNS
SF-295 CNS = test system: SF-295 CNS
SF-539 CNS = test system: SF-539 CNS
SK-MEL-2 melanoma = test system: SK-MEL-2 melanoma
SK-MEL-28 melanoma = test system: SK-MEL-28 melanoma
SK-MEL-5 melanoma = test system: SK-MEL-5 melanoma
SK-OV-3 ovarian = test system: SK-OV-3 ovarian
SN12C renal = test system: SN12C renal
SNB-19 CNS = test system: SNB-19 CNS
SNB-75 CNS = test system: SNB-75 CNS
SR leukemia = test system: SR leukemia
SW-620 colon = test system: SW-620 colon
T-47D breast = test system: T-47D breast
TK-10 renal = test system: TK-10 renal
U251 CNS = test system: U251 CNS
UACC-257 melanoma = test system: UACC-257 melanoma
UACC-62 melanoma = test system: UACC-62 melanoma
UO-31 renal = test system: UO-31 renal

## C=C1CCC2C3(C)COC(c4ccccc4F)OC3CCC2(C)C1CC(O)C1=CCOC1=O (stereo not drawn)
786-0 renal
  GI50: 16.7 µM
  TGI: 32.8 µM
A498 renal
  GI50: 23.5 µM
  TGI: 77.2 µM
A549 NSCLC
  GI50: 24.4 µM
  TGI: > 100 µM
ACHN renal
  GI50: 13.4 µM
  TGI: 26.2 µM
BT-549 breast
  GI50: 5.9 µM
  TGI: 22 µM
CAKI-1 renal
  GI50: 25 µM
  TGI: > 100 µM
CCRF-CEM leukemia
  GI50: 3.08 µM
  TGI: > 100 µM
COLO 205 colon
  GI50: 19.3 µM
  TGI: 55.9 µM
DU-145 prostate
  GI50: 28.9 µM
  TGI: > 100 µM
EKVX NSCLC
  GI50: 87.7 µM
  TGI: > 100 µM
HCC-2998 colon
  GI50: 25.3 µM
  TGI: > 100 µM
HCT-116 colon
  GI50: 4.3 µM
  TGI: 17.2 µM
HCT-15 colon
  GI50: 9.51 µM
  TGI: 33.5 µM
HL-60(TB) leukemia
  GI50: 5.66 µM
  TGI: > 100 µM
HOP-62 NSCLC
  GI50: 23 µM
  TGI: 42.4 µM
HOP-92 NSCLC
  GI50: 18.1 µM
  TGI: 45.4 µM
HS 578T breast
  GI50: 28.1 µM
  TGI: > 100 µM
HT29 colon
  GI50: 13.3 µM
  TGI: 52.6 µM
IGROV1 ovarian
  GI50: 24.2 µM
  TGI: 69.1 µM
K-562 leukemia
  GI50: 5.7 µM
  TGI: > 100 µM
KM12 colon
  GI50: 17.7 µM
  TGI: > 100 µM
LOX IMVI melanoma
  GI50: 11.1 µM
  TGI: 23.1 µM
M14 melanoma
  GI50: 30 µM
  TGI: > 100 µM
MALME-3M melanoma
  GI50: 22.5 µM
  TGI: 68.4 µM
MCF7 breast
  GI50: 3.48 µM
  TGI: 20.2 µM
MDA-MB-231 breast
  GI50: 16.9 µM
  TGI: 35.6 µM
MDA-MB-435
  GI50: 12.6 µM
  TGI: 46.9 µM
MDA-MB-468 breast
  GI50: 4.71 µM
  TGI: 19.1 µM
MOLT-4 leukemia
  GI50: 40.8 µM
  TGI: > 100 µM
NCI-H226 lung
  GI50: 5.74 µM
  TGI: 22.7 µM
NCI-H23 lung
  GI50: 23.6 µM
  TGI: 73.9 µM
NCI-H460 lung
  GI50: 25.4 µM
  TGI: > 100 µM
NCI-H522 lung
  GI50: 6 µM
  TGI: 21.4 µM
NCI/ADR-RES ovarian
  GI50: 8.93 µM
  TGI: 25.3 µM
OVCAR-3 ovarian
  GI50: 9.68 µM
  TGI: 26.6 µM
OVCAR-4 ovarian
  GI50: 13.8 µM
  TGI: 53.9 µM
OVCAR-5 ovarian
  GI50: 16.3 µM
  TGI: 50.8 µM
OVCAR-8 ovarian
  GI50: 4.86 µM
  TGI: 19.2 µM
PC-3 prostate
  GI50: 18.2 µM
  TGI: > 100 µM
RPMI-8226 leukemia
  GI50: 6.73 µM
  TGI: > 100 µM
RXF 393 renal
  GI50: 14.1 µM
  TGI: 30.9 µM
SF-268 CNS
  GI50: 28.4 µM
  TGI: > 100 µM
SF-295 CNS
  GI50: 15.9 µM
  TGI: 44.9 µM
SF-539 CNS
  GI50: 14.9 µM
  TGI: 28.3 µM
SK-MEL-2 melanoma
  GI50: 14.6 µM
  TGI: 29.1 µM
SK-MEL-28 melanoma
  GI50: 26.4 µM
  TGI: > 100 µM
SK-MEL-5 melanoma
  GI50: 17.1 µM
  TGI: 39.4 µM
SK-OV-3 ovarian
  GI50: 37.1 µM
  TGI: > 100 µM
SN12C renal
  GI50: 6.14 µM
  TGI: 92.5 µM
SNB-19 CNS
  GI50: 33.1 µM
  TGI: > 100 µM
SNB-75 CNS
  GI50: 6.89 µM
  TGI: 26.1 µM
SR leukemia
  GI50: 57.1 µM
  TGI: > 100 µM
SW-620 colon
  GI50: 2.1 µM
  TGI: 11.4 µM
T-47D breast
  GI50: 10.7 µM
  TGI: > 100 µM
TK-10 renal
  GI50: 34.6 µM
  TGI: > 100 µM
U251 CNS
  GI50: 11.9 µM
  TGI: 24.6 µM
UACC-257 melanoma
  GI50: 20 µM
  TGI: > 100 µM
UACC-62 melanoma
  GI50: 15.9 µM
  TGI: 46 µM
UO-31 renal
  GI50: 13.4 µM
  TGI: 54.1 µM
